From publication PMC11439058, “Exploiting the bile acid binding protein as transporter of a Cholic Acid/Mirin bioconjugate for potential applications in liver cancer therapy” (Scientific Reports, 2024)
Several values for one entry are separate records, joined by “and”; a condition that tells them apart may be missing. Identical values can stand only once. Like-named read-outs stand apart in the source and are kept apart here. Each block holds one molecule with its values, some of them ahead of it.

Key:
in vitro [1] = experiment: in vitro
Method: (§1) Plasma Stability and stability in the cellular medium. A DMSO stock solution of tested compounds was incubated in the presence of human plasma ([…]) and HEPES buffer (25 mM, 140 mM NaCl, pH 7.4) or DMEM 10% FBS, (1% PS, and 1% Glu) at 37 °C under shaking. At selected time points (0, 0.083, 0.25, 0.5, 1, 2, 8, 24 h), samples were treated with cold ACN to stop reactions through protein denaturation, and centrifuged at 5000 rpm for 10 min. The supernatant was analyzed by UV/LC-MS to monitor the amount of unmodified compound. Data were calculated with Excel and plotted using GraphPad Prism 8.0 (GraphPad Software Inc., San Diego, CA, USA). The half-life value (t1/2) was calculated with the following formula: [drawing 2]

in vitro [2] = experiment: in vitro; remark: listed apart in the source
Method: as §1

PAMPA assay = type: in vitro ADME; conditions: 4 h, rt
Method: PAMPA assay. The DMSO stock solution of each compound was diluted 1:1 v/v with phosphate buffer (PBS 10 mM, pH 7.4) to obtain donor solutions. Each well of the filter plate was covered with a 1% w/v L-α-phosphatidylcholine solution (PC) in dodecane used to mimic the phospholipidic bilayer and then added with the donor. In the acceptor plate, a mixture solution of DMSO/PBS 1:1 v/v was placed, and the sandwich was incubated at rt for 4 h under gentle shaking. At the end time point, samples were taken from both the upper and the lower plates and analyzed using the UV/LC-MS method described above. Apparent permeability (Papp cm/s x 10^−6) and membrane retention (MR %) was calculated as previously reported.

[3] = HepG2 cytotoxicity, Neutral Red Uptake; type: cell-based, Human; conditions: human
Method: (§2) Cell cultures and cytotoxicity assay. To evaluate the in vitro cytotoxicity of the test samples, the direct contact tests, proposed by ISO […], Biological evaluation of medical devices – Part 5: Tests for cytotoxicity: in vitro methods were used[71]. This test is suitable for sample with various shapes, sizes, or physical status (i.e. liquid or solid).
(§3) Evaluation of HepG2 viability. Cells were maintained in DMEM at 37 °C in a humidified atmosphere containing 5% CO2. The culture medium was supplemented with 10% fetal calf serum (FCS), 1% L-glutamine-penicillin-streptomycin solution, and 1% MEM Non-Essential Amino Acid Solution. Once at confluence, cells were washed with PBS 0.1 M, taken up with trypsin-EDTA solution and then centrifuged at 1000 rpm for 5 min. The pellet was re-suspended in medium solution (dilution 1:15).
(§4) The stock solutions of Mirin, Doxorubicin, and CA-M11 were prepared in DMSO. The following concentrations of Mirin and CA-M11 were tested: 5; 10; 20; 30; 40; 50; 60; 70; 80; 90 and 100 µM. […] Then, the experiments were repeated adding to Doxorubicin concentrations ranging from 0.3 to 6.0 µM, respectively, Mirin 5 µM, and CA-M11 5 µM. […] Each experiment was repeated 3 times, and all samples were set up in six replicates. A complete medium was used as negative control. […] At the end of the incubation, the routine culture medium was removed from each well, and cells were carefully rinsed with 1 mL of pre-warmed D-PBS. Multiwells were then gently blotted with paper towels. […] The cells were checked during the NR incubation for NR crystal formation. After incubation, the NR Medium was removed, cells were carefully rinsed with 1 mL of pre-warmed D-PBS. Then, the PBS was decanted and blotted from the wells and exactly 1 mL of NR Desorb solution was added to each sample. […] During this step the samples were covered in order to protect them from light. After 5 min from the plate shaker removal the absorbance was read at 540 nm by a UV/visible spectrophotometer (UV5, Mettler Toledo).

HepG2 cells = experiment: HepG2 cytotoxicity, Neutral Red Uptake; type: cell-based, Human
Method: as §2, §3, §4

[4] = system: Salmonella typhimurium strain TA98; experiment: Mutagenicity assay: Ames test, TA98; conditions: for concentration from which a mutagenic effect is shown: Salmonella typhimurium, 90 min
Method: (§5) Mutagenicity assay: Ames test. The TA100 and TA98 strains of Salmonella Typhimurium were utilized for mutagenicity assay. Approximately 107 bacteria were exposed to 6 concentrations of each test compound, as well as a positive and a negative control, for 90 min in a medium containing sufficient histidine to support approximately two cell divisions. After 90 min, the exposure cultures were diluted in pH indicator medium lacking histidine, and aliquoted into 48 wells of a 384-well plate. Within two days, cells which had undergone the reversion to His grew into colonies. Metabolism by the bacterial colonies reduced the pH of the medium, changing the color of that well. This color change can be detected visually or by a microplate reader. The number of wells containing revertant colonies were counted for each dose and compared to a zero-dose control. Each dose was tested in six replicates. The following concentrations of Mirin and CA-M11 were tested: 5; 10; 30; 50; 80 and 100 µM. The concentration values tested of Doxorubicin were: 0.3; 1.2; 1.8; 3.0; 6.0 and 30 µM. The experiments were then repeated adding to Doxorubicin concentrations ranging from 0.3 to 30 µM, respectively, Mirin 5 µM and CA-M11 5 µM.

[5] = system: Salmonella typhimurium strain TA100; experiment: Mutagenicity assay: Ames test, TA100; conditions: for concentration from which a mutagenic effect is shown: Salmonella typhimurium, 90 min
Method: as §5

[6] = Extraction recovery from denatured microsomes (matrix effect); conditions: human, Recovery (% Rec, Time 0'), denatured human liver microsomes
Source text: Therefore, matrix effects were investigated by preparing fresh time-zero solutions made of denatured microsomes, solvent mix and tested compounds. To have a better correlation with the time-zero of the metabolic stability experiments, final volumes and concentrations used were not modified.
Extraction Recovery % (% Rec) of CA-M11 and Mirin in human liver microsomes. Data are reported as the mean ± standard deviation (SD) of n=3 experiments run in triplicates.

[7] = Microsomal (metabolic) stability; type: in vitro ADME; conditions: human liver microsomes
Method: Microsomal stability. In the presence of phosphate buffer (PBS 10 mM, pH 7.4), human liver microsomes (HLM) (0.2 mg mL^−1), and a NADPH solution in MgCl2 48 mM, each DMSO compound solution was incubated at 37 °C for 1 h under shaking. Then, the metabolizing reactions were stopped by adding cold acetonitrile (ACN). After centrifuging and drying the reaction mixes under N2 flow, the quantitative analyses were performed using the UV/LC-MS method previously described. The percentages of the metabolized and unmetabolized compounds were calculated as previously described[73],[74].

Structure (SMILES): C[C@H](CCC(=O)Oc1ccc(/C=C2\SC(=N)NC2=O)cc1)[C@H]1CCC2C3C(C[C@H](O)[C@@]21C)[C@@]1(C)CC[C@@H](O)CC1C[C@H]3O (stereo partly drawn) [CA-M11, (4R)-4-((Z)-(2-Imino-4-oxothiazolidin-5-ylidene)methyl)phenyl 4-((3R,7R,10 S,12 S,13R,17R)-3,7,12-trihydroxy-10,13-dimethylhexadecahydro-1 H-cyclopenta[a]phenanthren-17-yl)pentanoate]
- Plasma stability (% ± SD) (in vitro [1]; human, 0 h, pH 7.4): 72.79 ± 2.57%
- Plasma stability (% ± SD) (in vitro [1]; human, 0.083 h, pH 7.4): 74.01 ± 0.65%
- Plasma stability (% ± SD) (in vitro [1]; human, 0.25 h, pH 7.4): 72.29 ± 3.22%
- Plasma stability (% ± SD) (in vitro [1]; human, 0.5 h, pH 7.4): 75.47 ± 0.04%
- compound hydrolyzed by plasmatic esterases (in vitro [1]; human, pH 7.4): Approximately 30%
- half-life (in vitro [1]; human, plasma, pH 7.4, t 1/2 (half-life) in plasma): ~18 h
- DMEM cell culture medium stability (% ± SD) (in vitro [2]; 0 h): 93.96 ± 5.76%
- DMEM cell culture medium stability (% ± SD) (in vitro [2]; 0.083 h): 91.94 ± 0.85%
- DMEM cell culture medium stability (% ± SD) (in vitro [2]; 0.25 h): 94.24 ± 0.37%
- DMEM cell culture medium stability (% ± SD) (in vitro [2]; 0.5 h): 94.77 ± 0.60%
- DMEM cell culture medium stability (% ± SD) (in vitro [2]; 1 h): 92.08 ± 2.15%
- DMEM cell culture medium stability (% ± SD) (in vitro [2]; 2 h): 82.83 ± 3.38%
- half-life (in vitro [2]; buffer): 21.7 h
- Membrane retention MR (%) (PAMPA assay): 2.26 ± 0.64%
- IC50 at 24 h [3]: 40 µM
- cytotoxic effect on HepG2 cells at 5 µM (HepG2 cells): does not exert a significant cytotoxic effect
- increase of cell death in combination with Doxorubicin (HepG2 cells; 5 µM compound + Doxorubicin 2.4 µM, HepG2, 24 h): roughly 40%
- concentration from which a mutagenic effect is shown [4]: ≥ 10 µM
- concentration from which a mutagenic effect is shown [5]: ≥ 10 µM
- recovery at 0 min [6]: < 70%

- Plasma stability (% ± SD) (in vitro [1]; human plasma, time 0 h): 89.10 ± 1.03%
- Plasma stability (% ± SD) (in vitro [1]; human plasma, time 0.083 h): 90.80 ± 0.13%
- Plasma stability (% ± SD) (in vitro [1]; human plasma, time 0.25 h): 92.18 ± 1.34%
- Plasma stability (% ± SD) (in vitro [1]; human plasma, time 0.5 h): 88.72 ± 3.98%
- Plasma stability (% ± SD) (in vitro [1]; human plasma, time 1 h): 89.70 ± 2.23%
- Plasma stability (% ± SD) (in vitro [1]; human plasma, time 2 h): 84.51 ± 2.93%
- Plasma stability (% ± SD) (in vitro [1]; human plasma, time 8 h): 83.07 ± 2.40%
- Plasma stability (% ± SD) (in vitro [1]; human plasma, time 24 h): 77.94% and 77.94 ± 2.30%
- percentage of unmodified compound in plasma (in vitro [1]; human plasma, up to 8 h of incubation): ≥ 80%
- half-life (in vitro [2]): > 100 h
- stability percentage in DMEM cell culture medium (in vitro [2]; DMEM 10% FBS, all time points up to 24 h): above 90%
- DMEM cell culture medium stability (% ± SD) (in vitro [2]; DMEM 10% FBS, time 0 h): 104.19 ± 1.20%
- DMEM cell culture medium stability (% ± SD) (in vitro [2]; DMEM 10% FBS, time 0.083 h): 106.18 ± 0.16%
- DMEM cell culture medium stability (% ± SD) (in vitro [2]; DMEM 10% FBS, time 0.25 h): 107.78 ± 1.57%
- DMEM cell culture medium stability (% ± SD) (in vitro [2]; DMEM 10% FBS, time 0.5 h): 103.73 ± 2.61%
- DMEM cell culture medium stability (% ± SD) (in vitro [2]; DMEM 10% FBS, time 1 h): 104.88 ± 6.37%
- DMEM cell culture medium stability (% ± SD) (in vitro [2]; DMEM 10% FBS, time 2 h): 98.81 ± 3.43%
- DMEM cell culture medium stability (% ± SD) (in vitro [2]; DMEM 10% FBS, time 8 h): 97.14 ± 2.81%
- DMEM cell culture medium stability (% ± SD) (in vitro [2]; DMEM 10% FBS, time 24 h): 91.14 ± 2.70%
- half-life (in vitro [2]; buffer): 114 h
- Metabolic stability (%) ([7]; time 0 min): 92.32 ± 1.93%
- Metabolic stability (%) ([7]; time 60 min): 90.65 ± 0.83%
- Membrane retention MR (%) (PAMPA assay): 1.16 ± 0.90%
- recovery at 0 min [6]: 92.3 ± 1.92%
Structure (SMILES): [H]/N=C1/NC(=O)C(=Cc2ccc(O)cc2)S1 [Mirin, (Z)-5-(4-Hydroxybenzylidene)-2-iminothiazolidin-4-one]
- IC50 at 24 h ([3]; HepG2, 24 h, Neutral Red Uptake, read-out: IC50 (cytotoxic effect)): 50 µM
- effect on Doxorubicin mutagenicity ([4]; 5 µM compound + Doxorubicin 0.3 to 30 µM, TA98): not able to affect Doxorubicin mutagenicity
- effect on Doxorubicin mutagenicity ([5]; 5 µM compound + Doxorubicin 0.3 to 30 µM, TA100): not able to affect Doxorubicin mutagenicity

Structure (SMILES): COc1cccc2c1C(=O)c1c(O)c3c(c(O)c1C2=O)C[C@@](O)(C(=O)CO)C[C@@H]3O[C@H]1C[C@H](N)[C@H](O)[C@H](C)O1 [Doxorubicin]
- viability at 24 h, 0.3 µM ([3]; HepG2 cells, Doxorubicin 0.3 µM, 24 h, read-out: Percentage of viable HepG2 cells): 84.7%
- viability at 24 h, 0.6 µM ([3]; HepG2 cells, Doxorubicin 0.6 µM, 24 h, read-out: Percentage of viable HepG2 cells): 73.4%
- viability at 24 h, 1.2 µM ([3]; HepG2 cells, Doxorubicin 1.2 µM, 24 h, read-out: Percentage of viable HepG2 cells): 65%
- viability at 24 h, 1.8 µM ([3]; HepG2 cells, Doxorubicin 1.8 µM, 24 h, read-out: Percentage of viable HepG2 cells): 49.9%
- viability at 24 h, 2.4 µM ([3]; HepG2 cells, Doxorubicin 2.4 µM, 24 h, read-out: Percentage of viable HepG2 cells): 38.4%
- viability at 24 h, 3 µM ([3]; HepG2 cells, Doxorubicin 3.0 µM, 24 h, read-out: Percentage of viable HepG2 cells): 28.3%
- viability at 24 h, 6 µM ([3]; HepG2 cells, Doxorubicin 6.0 µM, 24 h, read-out: Percentage of viable HepG2 cells): 18.9%
- viability at 24 h, 12 µM ([3]; HepG2 cells, Doxorubicin 12.0 µM, 24 h, read-out: Percentage of viable HepG2 cells): 5.8%
- IC50 at 24 h ([3]; HepG2 cells, HepG2, 24 h, Neutral Red Uptake, read-out: IC50 (cytotoxic effect)): 1.8 µM
- concentration from which a mutagenic effect is shown [4]: ≥ 10 µM
- concentration from which a mutagenic effect is shown [5]: ≥ 10 µM
